The text below walks through data of patent US12708673B2, “Methods and compositions related to peptides and proteins with c-terminal elements” (Sanford Burnham Prebys Medical Discovery Institute, priority 2008, dated 2026).

“Also recorded” adds a separate entry of the source.

One assay deals with PPC-1 cells. The assay is described as follows: T7 phage binding to PPC-1 (PPC1) cells at 4° C., quantified by titration/plaque assay. It counts as cell-based, human. As for the experimental part: FIG. 2A: Binding of T7 phage to prostate cancer cells depends on the display of a C-terminal arginine on the phage particles. PPC1 cells were incubated with T7 bacteriophage displaying derivatives of the G7 (upper graph) or RPARPAR peptide (SEQ ID NO: 2) (lower graph) at 4° C., and the bound phage was quantified by plaque assay. Binding is expressed in fold over of the non-binding G7 control phage. FIG. 2B: Phage displaying C-terminal arginine is internalized into cultured PPC1 cells (arrow, nuclear internalization; arrowhead, cytoplasmic internalization). A panel of T7 phage clones were incubated at 37° C. with PPC1 cells grown on collagen-coated coverslips, stained with anti T7 antibody and imaged by confocal microscopy.
(§1) Phage display. For in vivo phage display, mice were injected intravenously with 10^10 plaque-forming units (pfu) of T7 phage followed by perfusion of the circulatory system and determination of the bound phage in target organs by titration. For cell binding studies on cultured cells (in vitro display) and organ-derived cell suspensions (ex vivo display), the cells were incubated with 10^9 pfu of phage at 4° C., washed, lysed, and quantified by titration. Incubation at 37° C. followed by low pH wash (glycine-HCl, pH 2.5) was used to assess the amount of internalized phage.
(§2) For biopanning and phage binding studies (Hoffman, J. A. et al., 2004), cultured cells were grown to confluence and harvested with trypsin and mouse organs were dissociated using Medimachine (BD Biosciences, San Jose, CA). To measure phage binding, 10^6 cells in binding buffer (DMEM containing 1% BSA) were incubated with 10^9 pfu/ml of T7 phage for 1 hour at 4° C. The cells were washed 4 times with the binding buffer, lysed in LB bacterial growth medium containing 1% NP-40, and titrated. Phage internalization assays used the same procedure, except that the cells were incubated with the phage at 37° C., and that an acidic buffer (500 mM sodium chloride, 0.1 M glycine, 1% BSA, pH 2.5) was used instead of binding buffer in the second wash.
Centrifugation on a silicone oil cushion (1.03 g/ml) was used to separate unbound phage from cells during time course experiments. Inhibitors of phage binding and internalization (heparin, chondroitin, glycocalyx removal enzymes, endocytosis inhibitors, free peptides, quantum dots and UV-inactivated phage) were added to the cells 20 minutes prior to incubation with phage. Endocytosis inhibitors used in this study were the following: nystatin (50 μg/ml), genistein (100 μg/ml), chlorpromazine (5 μg/ml), 5-(N-ethyl-N-isopropyl) amiloride (100 μM), wortmannin (10 μM).

The test system of a further assay is Du-145. The assay is described as follows: RPARPAR phage binding to cultured cells at 4° C. It counts as cell-based, human. The settings on record: Du-145 prostate cancer cells. As for the experimental part: (§3) FIG. 15A: Binding of RPARPAR (SEQ ID NO:2) phage to the cultured cells at 4° C. in vitro. FIG. 15B: Binding of RPARPAR (SEQ ID NO:2) phage to primary cell suspensions of mouse organs at 4° C. ex vivo. FIGS. 15C and 15D: Tissue distribution of intravenously injected RPARPAR (SEQ ID NO:2) phage after 20 minutes of circulation time. FIG. 15C: Phage was quantified by titration, tissue binding is expressed as fold G7 phage. Statistical analysis was performed by Student's t-test (c). n=3; error bars indicate s.d.; double asterisk, p<0.01, triple asterisk, p<0.001. FIG. 15D (panels d and e): Immunofluorescence localization of T7 phage (light coloring) in lung sections of mice injected intravenously with RPARPAR (SEQ ID NO:2) (d) or G7 (e) phage. Widespread immunoreactivity is present in the lungs of mice injected with RPARPAR (SEQ ID NO:2) (arrowheads in d) but not G7 (with occasional labeling seen in vessels, arrows in e). Scale bar: 50 μm.
(§4) Phage display. For in vivo phage display, mice were injected intravenously with 10^10 plaque-forming units (pfu) of T7 phage followed by perfusion of the circulatory system and determination of the bound phage in target organs by titration. For cell binding studies on cultured cells (in vitro display) and organ-derived cell suspensions (ex vivo display), the cells were incubated with 10^9 pfu of phage at 4° C., washed, lysed, and quantified by titration. […]

A further assay deals with PC-3. The assay is described as follows: RPARPAR phage binding to cultured cells at 4° C. It counts as cell-based, human. To be noted: PC-3 prostate cancer cells. As for the experimental part:
as §3, §4

In assay [1] the test system is primary cells derived from normal mouse organs. Nature of the assay: RPARPAR phage binding to primary cell suspensions of mouse organs at 4° C. ex vivo. It counts as cell-based. The settings on record: panel of normal mouse organs. As for the experimental part:
as §3, §4

The next assay concerns M21 melanoma cells. Nature of the assay: RPARPAR phage binding to cultured cells at 4° C. To be noted: non-transfected M21. It counts as cell-based. As for the experimental part:
as §3, §1, §2

A further assay deals with PDAC1.3. The assay is described as follows: RPARPAR phage binding to cultured cells at 4° C. It counts as cell-based. The settings on record: PDAC1.3 pancreatic carcinoma. As for the experimental part: as §3, §1, §2
Assay [2] relates to human umbilical vein endothelial cells (HUVEC). The assay is described as follows: RPARPAR phage binding to cultured cells at 4° C. It counts as cell-based. As for the experimental part:
as §3, §1, §2

The target in a further assay is T1, wild-type NRP-1 (Homo sapiens, UniProt O14786).
T1 construct: expressed in transfected cells; host or cells: M21 melanoma cells, transient transfection with lipofectamine; pcDNA3.1(+) construct, gift of Dr. Michael Klagsbrun
The assay is described as follows: Phage binding and internalization in M21 melanoma cells transiently transfected with wild-type NRP-1. It counts as cell-based. As for the experimental part:
FIGS. 18A-18C show the identification and validation of NRP-1 as the CendR receptor. FIG. 18A: Affinity chromatography of proteins interacting with RPARPAR (SEQ ID NO: 2) peptide. PPC-1 tumor tissue was extracted with a 200 mM glucopyranoside buffer, and the extract was incubated with RPARPAR-coated (SEQ ID NO:2) beads, followed by extensive washes, and elution with 2 mM free RPARPAR (SEQ ID NO:2) peptide. Note appearance of a 130 kDa band, identified by mass spectroscopy as NRP-1, starting in the fraction 3 of the eluate. Upper panel—a silver stained gel, lower panel—an immunoblot with anti-NRP-1 antibody. FIG. 18B: Binding of RPARPAR (SEQ ID NO:2) phage to M21 melanoma cells transiently transfected with wild-type NRP-1 (NRP-1), triple mutant NS346A-E348A-T349A NRP-1 (Mutant NRP-1), or parental pcDNA3.1plasmid (Vector), and to non-transfected M21 cells. FIG. 18C: (c, d), Confocal immunofluorescence images of NRP-1 and RPARPAR (SEQ ID NO:2) T7 phage in PPC-1 cells incubated with phage at 37° C. for 40 minutes (c) and 3 hours (d). The phage and NRP-1 co-localize extensively, but there appears to be a progressive decrease in the overlap (arrowheads in c and d) and appearance of structures positive for the phage only (arrows, d). (e) Immunostaining and confocal imaging of RPARPAR (SEQ ID NO:2) phage and NRP-1 in M21 cells transiently transfected with NRP-1. […]

T1 sequence (O14786 22-923): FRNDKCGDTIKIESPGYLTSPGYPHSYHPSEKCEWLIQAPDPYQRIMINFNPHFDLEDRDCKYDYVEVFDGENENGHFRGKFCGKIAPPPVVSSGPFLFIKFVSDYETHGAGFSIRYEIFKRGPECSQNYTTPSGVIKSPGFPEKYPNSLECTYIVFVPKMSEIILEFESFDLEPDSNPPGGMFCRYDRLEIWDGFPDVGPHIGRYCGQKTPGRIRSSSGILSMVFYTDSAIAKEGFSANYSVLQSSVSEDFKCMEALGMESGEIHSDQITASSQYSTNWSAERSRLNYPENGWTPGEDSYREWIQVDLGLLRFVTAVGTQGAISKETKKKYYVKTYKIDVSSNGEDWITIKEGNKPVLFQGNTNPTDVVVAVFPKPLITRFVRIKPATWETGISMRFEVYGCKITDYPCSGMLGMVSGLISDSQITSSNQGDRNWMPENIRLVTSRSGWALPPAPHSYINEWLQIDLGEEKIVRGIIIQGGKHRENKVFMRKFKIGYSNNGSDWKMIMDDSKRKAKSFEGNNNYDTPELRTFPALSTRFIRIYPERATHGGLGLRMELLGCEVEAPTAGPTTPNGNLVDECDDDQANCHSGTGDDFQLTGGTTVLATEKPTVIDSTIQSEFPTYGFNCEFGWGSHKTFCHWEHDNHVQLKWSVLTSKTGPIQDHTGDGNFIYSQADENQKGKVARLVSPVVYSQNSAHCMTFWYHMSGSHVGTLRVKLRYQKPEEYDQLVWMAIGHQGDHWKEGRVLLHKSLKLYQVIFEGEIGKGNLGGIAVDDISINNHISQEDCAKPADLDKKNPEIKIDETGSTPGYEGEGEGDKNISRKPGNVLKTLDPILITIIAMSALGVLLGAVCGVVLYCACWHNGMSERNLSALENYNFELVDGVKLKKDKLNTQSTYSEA

Take RPARPAR [RPARPAR phage]: the “Phage binding to PPC-1 cells (in words)” value in the assay with PPC-1 cells (4° C.) is “stronger binding than the GGGGGGR; also recorded: robust binding and internalization”. Further, the “Time to plateau of phage binding” value in the assay with PPC-1 cells (4° C.) was 20 min. The “Phage binding after trypsin treatment of PPC-1 cells” value in the assay on PPC-1 cells (trypsin treatment of cells prior to binding, data not shown) is “decreased binding”. Moreover, the Phage binding result is “bound” in the assay on Du-145; “bound” with PC-3; “also bound” in assay [1]; “bound” with PDAC1.3; “binding was also seen” in assay [2]. For the same substance, in the assay on M21 melanoma cells, the “Phage binding over control phage” value is reported as “did not bind; also recorded: do not bind nor internalize”. The “Phage binding and internalization by M21 cells with forced expression of NRP-1” value on wild-type NRP-1 was “capable of binding and internalizing”.
